Reference: patent EP0979098B1, “METHOD OF TREATING HYPERPROLACTINEMIA AND PROLACTINOMAS” (Cedars-Sinai Medical Center, priority 1997, dated 1998)
Positions of bridges follow the written chain, without caps; N, C: chain ends. Non-standard residues stand in square brackets, D forms with d. Residues, ends and D or L forms follow the SMILES beside them.

System: Cells derived from six prolactin-secreting pituitary adenomas
Experiment: Prolactin secretion from cultured prolactinoma cells (immunoradiometric assay of PRL in medium)
Assay type: cell-based, human
Conditions: for response of prolactin secretion (in words): cells from the four large tumors (tumors 1, 2, 3 and 4); for effect on prolactin release (in words): adenomatous cell cultures of tumor 1, 3 hours; for effect on prolactin production (in words) / suppressed prolactin release: tumor 4 cell cultures; for suppressed prolactin release: p<0.05

| Compound | response of prolactin secretion (in words) | effect on prolactin release (in words) | effect on prolactin production (in words) | Prolactin release inhibited versus controls (tumor 2 cell cultures, 10 nM, p < 0.0005) [%] | suppressed prolactin (tumor 3 cell cultures, 10 nM and 100 nM, dose dependent, p < 0.05) | suppressed prolactin release |
| --- | --- | --- | --- | --- | --- | --- |
| C[C@@H](O)[C@@H]1NC(=O)[C@H](CCCCN)NC(=O)[C@@H](Cc2c[nH]c3ccccc23)NC(=O)[C@H](Cc2ccccc2)NC(=O)[C@@H](NC(=O)[C@H](N)Cc2ccccc2)CSSC[C@@H](C(=O)N[C@H](CO)[C@@H](C)O)NC1=O [Octreotide] | failed to respond | – | – | – | – | – |
| CC[C@@H]1NC(=O)[C@H](CCCCN)NC(=O)[C@@H](Cc2c[nH]c3ccccc23)NC(=O)[C@H](Cc2ccc(O)cc2)NC(=O)[C@@H](NC(=O)[C@@H](Cc2ccccc2)NS(=O)(=O)CCN2CCN(CCO)CC2)CSSC[C@@H](C(=O)N[C@H](C(N)=O)[C@@H](C)O)NC1=O [BIM-23197] | failed to respond | did not affect prolactin release | modestly stimulated prolactin production | – | – | – |
| CC(C)[C@@H]1NC(=O)[C@H](CCCCN)NC(=O)[C@@H](Cc2c[nH]c3ccccc23)NC(=O)[C@H](Cc2ccc(O)cc2)NC(=O)[C@@H](NC(=O)[C@H](N)Cc2ccc3ccccc3c2)CSSC[C@@H](C(=O)N[C@H](C(N)=O)[C@@H](C)O)NC1=O [Lanreotide] | failed to respond | did not affect prolactin release | – | – | – | – |
| C[C@@H](O)[C@@H]1NC(=O)[C@H](CCCCN)NC(=O)[C@@H](Cc2c[nH]c3ccccc23)NC(=O)[C@H](Cc2ccccc2)NC(=O)[C@H](Cc2ccccc2)NC(=O)[C@@H](N)CSSC[C@@H](C(N)=O)NC(=O)[C@H](Cc2ccccc2)NC1=O [BIM-23268] (H-CFF[dW]KTFC-NH2; disulfide 1-8) | suppression of prolactin secretion | – | – | 38 | up to 29% | more than 30% |
| CC[C@@H]1NC(=O)[C@H](CCCCN)NC(=O)[C@@H](Cc2c[nH]c3ccccc23)NC(=O)[C@H](Cc2ccc(O)cc2)NC(=O)[C@@H](NC(=O)[C@@H](Cc2ccccc2)NC(=O)CN2CCN(CCO)CC2)CSSC[C@@H](C(=O)N[C@H](C(N)=O)[C@@H](C)O)NC1=O [BIM-23190] | failed to respond | did not affect prolactin release | modestly stimulated prolactin production | – | – | – |
| C[C@@H](O)[C@H](NC(=O)[C@H](Cc1ccccc1)NC(=O)[C@@H](NC(=O)[C@H](CCCCN)NC(=O)[C@@H](Cc1c[nH]c2ccccc12)NC(=O)[C@H](Cc1ccccc1)NC(=O)[C@H](Cc1ccccc1)NC(=O)[C@H](N)Cc1ccccc1)[C@@H](C)O)C(N)=O [BIM-23052, H-D-Phe-Phe-Phe-D-Trp-Lys-Thr-Phe-Thr-NH2] (H-[dF]FF[dW]KTFT-NH2) | suppression of prolactin secretion | – | – | – | – | more than 30% |
| CC[C@@H]1NC(=O)[C@H](CCCCN)NC(=O)[C@@H](Cc2c[nH]c3ccccc23)NC(=O)[C@H](Cc2ccc(O)cc2)NC(=O)[C@@H](NC(=O)[C@H](N)Cc2ccccc2)CSSC[C@@H](C(=O)N[C@H](C(N)=O)[C@@H](C)O)NC1=O [BIM-23023] | – | did not affect prolactin release | – | – | – | – |
